Literature values as cited in patent publication US8937168B2, “Method of producing purified rebaudioside A compositions using solvent/antisolvent crystallization” (Cargill, Incorporated, priority 2007, dated 2015).

Settings: relative to sucrose; background statement

In the case of `C=C1C[C@@]23CC[C@H]4[C@@](C)(CCC[C@@]4(C)C(=O)O[C@@H]4O[C@H](CO)[C@@H](O)[C@H](O)[C@H]4O)[C@@H]2CC[C@]1(O[C@@H]1O[C@H](CO)[C@@H](O)[C@H](O[C@@H]2O[C@H](CO)[C@@H](O)[C@H](O)[C@H]2O)[C@H]1O[C@@H]1O[C@H](CO)[C@@H](O)[C@H](O)[C@H]1O)C3` [Rebaudioside A, rebaudioside A], the “times the sweetness of sucrose” value is given as 250-450 times.
